The values that follow come from US10188704B2, “Enhanced melanoma cancer prevention by novel melanotropins” (ARIZONA BOARD OF REGENTS ON BEHALF OF THE UNIVERSITY OF …, priority 2015, dated 2019).

Series [1] has as its target T1, hMC4R (Homo sapiens, UniProt P32245). Briefly: Competition binding assay with [125I]-NDP-α-MSH, whole HEK293 cells expressing hMC4R. On the set-up: expressed in transfected cells; host or cells: HEK293. The following applies: for MC4R % BE (Percent Binding Efficiency): maximal % of 125I-NDP-α-MSH displacement observed at 10 μM.
Protocol: (§1) Competition binding experiments were carried out using both of cloned cell line and melanoma cells (A375, ATCC). The whole HEK293 cells were stably expressing human MC1, MC3, MC4, and MC5 receptors. HEK293 cells transfected with hMCRs were seeded on 96-well plates 48 hours before assay (50,000 cells/well). For the assay, the cell culture medium was aspirated and the cells were washed once with a freshly prepared minimum essencial medium (MEM) buffer containing 100% minimum essential medium with Earle's salt (MEM, GIBCO), and 25 mM sodium bicarbonate. […] The assay medium was subsequently removed, the cells were washed once with basic medium, and then lysed by the addition of 100 μL of 0.1M NaOH and 100 μL of 1% Triton X-100.
(§2) IC50 values represent the mean of two experiments performed in triplicate. IC50 and EC50 estimates and their associated standard errors were determined by fitting the data using a nonlinear least squares analysis, with the help of GraphPad Prism 5 (GraphPad Software, San Diego, Calif.).
The target of series [2] is T2, hMC1R (Homo sapiens, UniProt Q01726).
T2 construct: expressed in transfected cells; host or cells: HEK293
T2 sequence (Q01726 whole entry): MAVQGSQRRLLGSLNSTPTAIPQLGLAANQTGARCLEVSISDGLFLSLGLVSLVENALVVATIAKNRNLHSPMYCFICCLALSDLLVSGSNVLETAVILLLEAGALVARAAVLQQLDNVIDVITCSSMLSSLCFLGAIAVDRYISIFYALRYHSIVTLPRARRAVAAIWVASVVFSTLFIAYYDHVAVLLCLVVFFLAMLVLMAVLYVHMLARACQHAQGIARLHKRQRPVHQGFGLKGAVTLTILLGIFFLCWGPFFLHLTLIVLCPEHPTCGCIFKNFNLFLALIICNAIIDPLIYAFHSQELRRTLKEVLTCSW
Briefly: Competition binding assay with [125I]-NDP-α-MSH, whole HEK293 cells expressing hMC1R. The following applies: for MC1R % BE (Percent Binding Efficiency) / IC50: Table 4; for MC1R % BE (Percent Binding Efficiency): maximal % of 125I-NDP-α-MSH displacement observed at 10 μM; for IC50: 50% specific binding (N = 4), NB = 0% of 125I-NDP-α-MSH displacement observed at 10 μM, read-out: MC1R IC50; for selectivity towards hMC1R (binding, versus hMC3R, hMC4R, hMC5R): statement in words, refers to Table 4.
Protocol: as §1, §2

For series [3], the target named is T3, hMC3R (Homo sapiens, UniProt P41968). Briefly: Competition binding assay with [125I]-NDP-α-MSH, whole HEK293 cells expressing hMC3R. On the set-up: expressed in transfected cells; host or cells: HEK293. Particulars: for MC3R % BE (Percent Binding Efficiency): maximal % of 125I-NDP-α-MSH displacement observed at 10 μM.
T3 sequence (P41968 whole entry): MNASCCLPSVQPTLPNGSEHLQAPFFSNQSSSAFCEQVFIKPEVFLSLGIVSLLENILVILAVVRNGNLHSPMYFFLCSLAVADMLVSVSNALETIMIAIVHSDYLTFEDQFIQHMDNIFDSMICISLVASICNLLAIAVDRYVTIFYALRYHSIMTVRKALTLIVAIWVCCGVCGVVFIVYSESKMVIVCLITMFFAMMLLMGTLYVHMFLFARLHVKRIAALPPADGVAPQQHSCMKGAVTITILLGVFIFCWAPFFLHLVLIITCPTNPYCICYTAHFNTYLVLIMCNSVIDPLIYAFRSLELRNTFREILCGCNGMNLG
Protocol: as §1, §2
Series [4] concerns the target T4, hMC5R (Homo sapiens, UniProt P33032). Description: Competition binding assay with [125I]-NDP-α-MSH, whole HEK293 cells expressing hMC5R. On the set-up: expressed in transfected cells; host or cells: HEK293. The following applies: for MC5R % BE (Percent Binding Efficiency): maximal % of 125I-NDP-α-MSH displacement observed at 10 μM.
Protocol: as §1, §2
For series [5], the target named is T1, hMC4R. Description: cAMP assay (intracellular cAMP accumulation) at hMC4R. Set-up: expressed in transfected cells. The following applies: Table 2; for Emax: cAMP activity, read-out: hMC4R % max effect. The format is cell-based. In general terms: cAMP levels reflect the balance of adenylyl cyclase and phosphodiesterase activity.
Protocol: (§3) IC50 and EC50 estimates and their associated standard errors were determined by fitting the data using a nonlinear least squares analysis, with the help of GraphPad Prism 5 (GraphPad Software, San Diego, Calif.).
In series [6] the target is T3, hMC3R. Briefly: cAMP assay (intracellular cAMP accumulation) at hMC3R. Type of series: cell-based. Set-up: expressed in transfected cells. The following applies: Table 2; for EC50: 50% maximal intracellular cAMP accumulation (N = 4), tested 10^-10 to 10^-5 M.
Protocol: as §3
The target in series [7] is T4, hMC5R. Description: cAMP assay (intracellular cAMP accumulation) at hMC5R. Type of series: cell-based. On the set-up: expressed in transfected cells. The following applies: Table 2; for Emax: cAMP activity, read-out: hMC5R % max effect.
Protocol: as §3
A further series in a line: in vitro. Type of series: in vitro ADME.
Series [8] has as its target T2, hMC1R. Description: cAMP assay (intracellular cAMP accumulation) at hMC1R. Type of series: cell-based. The following applies: Table 2; cAMP activity; read-out: hMC1R % max effect.
Protocol: as §3
Where [9] appears, read: Table 4, 50% specific binding (N = 4), NB = 0% of 125I-NDP-α-MSH displacement observed at 10 μM, read-out: MC4R IC50.
Where [10] appears, read: Table 4, 50% specific binding (N = 4), NB = 0% of 125I-NDP-α-MSH displacement observed at 10 μM, read-out: MC3R IC50.
Setting [11] is: Table 4, 50% specific binding (N = 4), NB = 0% of 125I-NDP-α-MSH displacement observed at 10 μM, read-out: MC5R IC50.
Where [12] appears, read: 50% maximal intracellular cAMP accumulation (N = 4), tested 10^-10 to 10^-5 M.
[13] abbreviates: Table 2, concentration of peptide at 50% specific binding (N = 4), tested 10^-10 to 10^-5 M, read-out: hMC3R IC50.
The mark [14] stands for this setting: Table 2, concentration of peptide at 50% specific binding (N = 4), tested 10^-10 to 10^-5 M, read-out: hMC5R IC50.

Read-outs that look alike come from different tables or passages of the source. Where only a bound is given, the exact number is not on record here.

T1 sequence (P32245 whole entry): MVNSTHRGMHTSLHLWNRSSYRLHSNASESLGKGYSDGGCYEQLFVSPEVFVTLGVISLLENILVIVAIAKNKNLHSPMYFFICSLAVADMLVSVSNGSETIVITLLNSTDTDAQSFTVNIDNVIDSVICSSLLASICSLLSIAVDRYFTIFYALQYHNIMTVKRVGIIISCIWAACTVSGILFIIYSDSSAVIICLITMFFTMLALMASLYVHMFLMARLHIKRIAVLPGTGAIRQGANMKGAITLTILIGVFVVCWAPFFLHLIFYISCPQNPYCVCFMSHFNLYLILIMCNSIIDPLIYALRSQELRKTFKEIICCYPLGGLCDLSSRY
T4 sequence (P33032 whole entry): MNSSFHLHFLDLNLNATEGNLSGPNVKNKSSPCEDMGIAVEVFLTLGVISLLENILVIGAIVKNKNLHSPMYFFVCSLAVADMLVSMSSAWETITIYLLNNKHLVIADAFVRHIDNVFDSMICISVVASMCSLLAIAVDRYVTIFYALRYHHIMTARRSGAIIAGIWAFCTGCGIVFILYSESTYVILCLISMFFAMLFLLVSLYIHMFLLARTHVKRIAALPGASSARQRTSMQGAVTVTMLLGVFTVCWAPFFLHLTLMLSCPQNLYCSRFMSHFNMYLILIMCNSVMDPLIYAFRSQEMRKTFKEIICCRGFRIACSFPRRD

As for “H-YVLGHFLWDRFG-NH2 [SEQ ID NO. 4] [listing 1 of 2 here]”, the “MC4R % BE (Percent Binding Efficiency)” value at hMC4R [1] (Table 4) stood at 47%. Also, the “MC1R % BE (Percent Binding Efficiency)” value at hMC1R [2] worked out at 100%. On hMC3R [3] (Table 4), the “MC3R % BE (Percent Binding Efficiency)” value is on record as 26%. The “MC5R % BE (Percent Binding Efficiency)” value at hMC5R [4] (Table 4) was 57%.

What is called IC50 is the concentration at which inhibition is half-maximal. “H-YVLGHFLWDRFG-NH2 [SEQ ID NO. 4] [listing 2 of 2 here]”: the IC50 on hMC4R [1] (setting [9]) was over 10 µM; on hMC1R [2], 1.48 µM; at hMC3R [3] (setting [10]) it was 1.88 µM; on hMC5R [4] (setting [11]), 0.0073 µM.

Take `CC(C)C[C@H](NC(=O)[C@@H](NC(=O)[C@@H](N)Cc1ccc(O)cc1)C(C)C)C(=O)NCC(=O)N[C@@H](Cc1c[nH]cn1)C(=O)N[C@@H](Cc1ccccc1)C(=O)N[C@@H](CCCNC(=N)N)C(=O)N[C@@H](Cc1c[nH]c2ccccc12)C(=O)N[C@@H](CC(=O)O)C(=O)N[C@@H](CCCNC(=N)N)C(=O)N[C@@H](Cc1ccccc1)C(=O)NCC(N)=O` [SEQ ID NO. 9]: the IC50 on hMC4R [1] (setting [9]) is 1.02 µM; at hMC1R [2], 0.198 µM; on hMC3R [3] (setting [10]), 1.62 µM; at hMC5R [4] (setting [11]) it was over 10 µM. In addition, at hMC4R [1] (Table 4), the “MC4R % BE (Percent Binding Efficiency)” value turned out to be 100%. Besides, the “MC3R % BE (Percent Binding Efficiency)” value on hMC3R [3] (Table 4) amounted to 53%. At hMC5R [4] (Table 4), the “MC5R % BE (Percent Binding Efficiency)” value came out at 60%.

For the compound H-YVLGPFLWDRFG-NH2 [SEQ ID NO. 6], the IC50 at hMC4R [1] (setting [9]) was determined as 0.013 µM; at hMC3R [3] (setting [10]), 0.04 µM; on hMC5R [4] (setting [11]) it was 0.0017 µM. Besides, the “MC4R % BE (Percent Binding Efficiency)” value on hMC4R [1] (Table 4) stood at 29%. Further, the “MC3R % BE (Percent Binding Efficiency)” value at hMC3R [3] (Table 4) worked out at 32%. The “MC5R % BE (Percent Binding Efficiency)” value at hMC5R [4] (Table 4) worked out at 32%.

Consider “H-YVLGHFLFDRFG-NH2 [SEQ ID NO. 5] [listing 1 of 2 here]”, for which the IC50 was 3.21 µM on hMC4R [1] (setting [9]), 0.022 µM on hMC1R [2] and over 10 µM at hMC3R [3] (setting [10]).

Regarding `CCCC[C@H](NC(=O)[C@@H](NC(=O)[C@H](Cc1ccc(O)cc1)NC(C)=O)C(C)C)C(=O)NCC(=O)N[C@@H](Cc1c[nH]cn1)C(=O)N[C@H](Cc1ccccc1)C(=O)N[C@@H](CCCNC(=N)N)C(=O)N[C@@H](Cc1c[nH]c2ccccc12)C(=O)N[C@@H](CC(=O)O)C(=O)N[C@@H](CCCNC(=N)N)C(=O)N[C@@H](Cc1ccccc1)C(=O)NCC(N)=O` [SEQ ID NO. 12, Ac-Tyr-Val-Nle-Gly-His-D-Phe-Arg-Trp-Asp-Arg-Phe-Gly-NH2, reference compound], on hMC4R [5], the Emax was determined as 100%.

The EC50 is the concentration at which the effect is half-maximal. The low end stands for greater potency, the high end for weaker potency. Regarding H-YVMGPFRWDRFG-NH2 [SEQ ID NO. 10], the IC50 on hMC4R [1] (Table 2, concentration of peptide at 50% specific binding (N = 4), tested 10^-10 to 10^-5 M, read-out: hMC4R IC50) came to 0.6 ± 0.07 µM; at hMC3R [3] (setting [13]), 0.0067 ± 0.001 µM; at hMC5R [4] (setting [14]), 0.34 ± 0.04 µM. The EC50 at hMC4R [5] (setting [12]) amounted to 0.1 ± 0.011 µM; on hMC3R [6], 0.00033 ± 1e-05 µM; on hMC5R [7] (setting [12]), 0.082 ± 0.01 µM. In addition, the figures for the Emax at hMC4R [5] and on hMC5R [7] were 99% and 97%, respectively.

For “H-YVLGHFLFDRFG-NH2 [SEQ ID NO. 5] [listing 2 of 2 here]”, on hMC4R [1] (Table 4), the “MC4R % BE (Percent Binding Efficiency)” value was found to be 58%. On hMC1R [2], the “MC1R % BE (Percent Binding Efficiency)” value was found to be 100% and the “selectivity towards hMC1R (binding, versus hMC3R, hMC4R, hMC5R)” value is “highly selective for MC1R”. In addition, the “selectivity towards hMC1R (binding, versus hMC3R, hMC4R, hMC5R)” value on hMC1R [2] (listed as Peptide 5) was “significant selectivity towards hMC1R”. The “MC3R % BE (Percent Binding Efficiency)” value on hMC3R [3] (Table 4) was 45%. The “MC5R % BE (Percent Binding Efficiency)” value at hMC5R [4] (Table 4) is on record as 0%.

Consider H-YVLGPFRWDRFG-NH2 [SEQ ID NO. 2], for which the IC50 on hMC4R [1] (setting [9]) is 0.076 µM; on hMC3R [3] (setting [10]), 0.165 µM; at hMC5R [4] (setting [11]), 0.067 µM. Further, the “MC4R % BE (Percent Binding Efficiency)” value on hMC4R [1] (Table 4) is given as 100%. Moreover, the “MC3R % BE (Percent Binding Efficiency)” value at hMC3R [3] (Table 4) was found to be 100%. In addition, the “MC5R % BE (Percent Binding Efficiency)” value on hMC5R [4] (Table 4) is given as 100%.

Turning to H-YVLGPFLFDRFG-NH2 [SEQ ID NO. 7], the IC50 on hMC4R [1] (setting [9]) turned out to be 0.058 µM; at hMC1R [2], 0.011 µM; on hMC3R [3] (setting [10]), 1.4 µM; at hMC5R [4] (setting [11]), 0.0053 µM. The “MC4R % BE (Percent Binding Efficiency)” value at hMC4R [1] (Table 4) was 36%. Besides, the “MC1R % BE (Percent Binding Efficiency)” value on hMC1R [2] was 32%. Besides, at hMC3R [3] (Table 4), the “MC3R % BE (Percent Binding Efficiency)” value was found to be 47%. In addition, the “MC5R % BE (Percent Binding Efficiency)” value at hMC5R [4] (Table 4) turned out to be 34%.

What is called half-life is the time in which the quantity being followed falls by half. Low values mean rapid decline, high ones slow decline. Turning to `CCCC[C@H](NC(=O)[C@@H](NC(=O)[C@@H](N)Cc1ccc(O)cc1)C(C)C)C(=O)NCC(=O)N[C@@H](Cc1cnc[nH]1)C(=O)N[C@H](Cc1ccc2ccccc2c1)C(=O)N[C@@H](CCCN=C(N)N)C(=O)N[C@H](Cc1c[nH]c2ccccc12)C(=O)N[C@@H](CC(=O)O)C(=O)N[C@@H](CCCN=C(N)N)C(=O)N[C@@H](Cc1ccccc1)C(=O)NCC(N)=O` [SEQ ID NO. 11, H-Tyr-Val-Nle-Gly-His-D-Nal(2′)-Arg-D-Trp-Asp-Arg-Phe-Gly-NH2], the half-life in the series “in vitro” amounted to 52 min. In addition, on hMC3R [6], the EC50 stood at 0.3 ± 0.006 µM. Moreover, the Emax worked out at 6% on hMC3R [6] (cAMP activity, read-out: hMC3R % max effect); 70% on hMC1R [8]; 6% at hMC5R [7]. For the same compound, the IC50 was determined as 0.005 ± 0.0006 µM on hMC3R [3] (setting [13]) and 0.0035 ± 0.0005 µM on hMC5R [4] (setting [14]).

In the case of H-YVLGPFRFDRFG-NH2 [SEQ ID NO. 3], the “MC4R % BE (Percent Binding Efficiency)” value on hMC4R [1] (Table 4) turned out to be 0%. Besides, the “MC1R % BE (Percent Binding Efficiency)” value on hMC1R [2] was 0%. Moreover, the IC50 at hMC3R [3] (setting [10]) stood at 1.25 µM. The “MC3R % BE (Percent Binding Efficiency)” value on hMC3R [3] (Table 4) is given as 33%. In addition, the “MC5R % BE (Percent Binding Efficiency)” value on hMC5R [4] (Table 4) was 0%.
